These results are taken from patent US12421225B2, “Heteroaromatic amide derivative and medicament containing the same” (KAKEN PHARMACEUTICAL CO., LTD., priority 2018, dated 2025).

Each structure is given as a SMILES string.

One data set has as its target human Nav1.7 (Homo sapiens (Human), UniProt Q15858). Kind of data set: Human Nav1.7 inhibitory activity evaluation (automated patch clamp QPatch16X, HEK293A cells stably expressing human Nav1.7 and human Navβ1). It counts as cell-based. As to conditions: human Nav1.7, automated patch clamp. The procedure, abridged:
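IC50 calculated from the concentration-response of inward current evoked by the second −10 mV, 50 ms depolarisation, which follows a 15 s conditioning step at roughly 30-40% inactivation and a 100 ms −120 mV interval. Cells: HEK293A expressing human Nav1.7/Navβ1, automated patch clamp, room temperature, 0.1% DMSO final.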
On the technique in general: In patch-clamp work, channel activity is measured electrically.

The target in another data set is human Nav1.5 (Homo sapiens (Human), UniProt Q14524). Kind of data set: Human Nav1.5 inhibitory activity evaluation (automated patch clamp QPatch16X, HEK293 cells stably expressing human Nav1.5). It is filed as cell-based. Conditions: human Nav1.5, automated patch clamp. Put shortly:
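IC50 derived from concentration-response of inward current at the 20th of 20 action-potential-mimicking pulses (holding −80 mV, leak corrected with −100 mV step). HEK293 cells stably expressing human Nav1.5, room temperature, extracellular pH 7.4, intracellular CsF-based pH 7.3, 0.1% DMSO.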

Sequence of human Nav1.5 (Q14524 whole entry): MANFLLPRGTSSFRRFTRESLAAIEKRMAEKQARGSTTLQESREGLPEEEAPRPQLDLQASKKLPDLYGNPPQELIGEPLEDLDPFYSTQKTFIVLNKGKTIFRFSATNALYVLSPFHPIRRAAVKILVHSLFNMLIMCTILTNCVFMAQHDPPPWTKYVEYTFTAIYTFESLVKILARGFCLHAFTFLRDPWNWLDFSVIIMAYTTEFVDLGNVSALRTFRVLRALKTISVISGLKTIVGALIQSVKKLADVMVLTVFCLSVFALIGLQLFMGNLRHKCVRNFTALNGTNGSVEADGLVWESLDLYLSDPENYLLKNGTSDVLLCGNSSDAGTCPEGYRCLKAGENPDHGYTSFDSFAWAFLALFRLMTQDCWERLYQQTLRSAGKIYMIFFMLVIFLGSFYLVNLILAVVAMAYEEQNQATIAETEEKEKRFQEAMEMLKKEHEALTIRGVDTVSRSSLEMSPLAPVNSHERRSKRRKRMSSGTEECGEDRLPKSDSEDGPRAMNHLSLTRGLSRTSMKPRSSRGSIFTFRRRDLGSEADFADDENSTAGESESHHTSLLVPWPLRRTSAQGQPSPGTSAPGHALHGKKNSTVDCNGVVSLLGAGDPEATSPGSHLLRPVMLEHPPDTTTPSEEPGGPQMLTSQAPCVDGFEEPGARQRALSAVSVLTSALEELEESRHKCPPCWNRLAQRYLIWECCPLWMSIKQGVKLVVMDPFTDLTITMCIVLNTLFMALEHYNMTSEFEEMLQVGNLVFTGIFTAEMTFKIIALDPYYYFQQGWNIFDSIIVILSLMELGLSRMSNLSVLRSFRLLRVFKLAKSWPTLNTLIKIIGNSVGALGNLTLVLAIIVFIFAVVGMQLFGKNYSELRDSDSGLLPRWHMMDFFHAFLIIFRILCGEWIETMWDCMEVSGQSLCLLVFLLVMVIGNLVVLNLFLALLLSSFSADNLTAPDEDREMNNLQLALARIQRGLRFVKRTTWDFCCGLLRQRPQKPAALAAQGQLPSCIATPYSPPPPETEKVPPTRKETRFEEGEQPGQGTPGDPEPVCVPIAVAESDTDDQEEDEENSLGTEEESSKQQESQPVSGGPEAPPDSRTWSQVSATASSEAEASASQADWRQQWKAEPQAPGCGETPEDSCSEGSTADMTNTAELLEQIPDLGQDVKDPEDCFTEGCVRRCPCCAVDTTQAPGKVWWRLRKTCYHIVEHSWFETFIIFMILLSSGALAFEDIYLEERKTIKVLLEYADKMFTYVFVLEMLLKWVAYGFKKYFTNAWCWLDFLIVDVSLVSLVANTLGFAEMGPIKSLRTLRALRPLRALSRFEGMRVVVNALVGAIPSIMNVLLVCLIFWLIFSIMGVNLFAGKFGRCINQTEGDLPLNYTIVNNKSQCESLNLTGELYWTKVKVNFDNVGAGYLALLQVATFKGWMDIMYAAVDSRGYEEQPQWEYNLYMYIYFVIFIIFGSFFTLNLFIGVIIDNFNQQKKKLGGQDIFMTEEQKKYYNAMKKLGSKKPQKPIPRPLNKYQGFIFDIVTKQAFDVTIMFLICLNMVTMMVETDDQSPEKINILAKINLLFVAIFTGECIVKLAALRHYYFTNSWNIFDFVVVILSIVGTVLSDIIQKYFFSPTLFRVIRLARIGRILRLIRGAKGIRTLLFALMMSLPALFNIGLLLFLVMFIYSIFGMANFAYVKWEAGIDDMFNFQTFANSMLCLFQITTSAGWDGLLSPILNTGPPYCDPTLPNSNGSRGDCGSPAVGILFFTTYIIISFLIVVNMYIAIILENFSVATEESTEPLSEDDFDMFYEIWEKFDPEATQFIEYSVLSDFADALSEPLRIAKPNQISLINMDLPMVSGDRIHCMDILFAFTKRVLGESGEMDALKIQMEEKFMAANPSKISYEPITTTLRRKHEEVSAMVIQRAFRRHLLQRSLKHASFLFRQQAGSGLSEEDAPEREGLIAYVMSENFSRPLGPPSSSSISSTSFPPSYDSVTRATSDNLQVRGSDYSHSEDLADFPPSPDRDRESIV
Sequence of human Nav1.7 (Q15858 whole entry): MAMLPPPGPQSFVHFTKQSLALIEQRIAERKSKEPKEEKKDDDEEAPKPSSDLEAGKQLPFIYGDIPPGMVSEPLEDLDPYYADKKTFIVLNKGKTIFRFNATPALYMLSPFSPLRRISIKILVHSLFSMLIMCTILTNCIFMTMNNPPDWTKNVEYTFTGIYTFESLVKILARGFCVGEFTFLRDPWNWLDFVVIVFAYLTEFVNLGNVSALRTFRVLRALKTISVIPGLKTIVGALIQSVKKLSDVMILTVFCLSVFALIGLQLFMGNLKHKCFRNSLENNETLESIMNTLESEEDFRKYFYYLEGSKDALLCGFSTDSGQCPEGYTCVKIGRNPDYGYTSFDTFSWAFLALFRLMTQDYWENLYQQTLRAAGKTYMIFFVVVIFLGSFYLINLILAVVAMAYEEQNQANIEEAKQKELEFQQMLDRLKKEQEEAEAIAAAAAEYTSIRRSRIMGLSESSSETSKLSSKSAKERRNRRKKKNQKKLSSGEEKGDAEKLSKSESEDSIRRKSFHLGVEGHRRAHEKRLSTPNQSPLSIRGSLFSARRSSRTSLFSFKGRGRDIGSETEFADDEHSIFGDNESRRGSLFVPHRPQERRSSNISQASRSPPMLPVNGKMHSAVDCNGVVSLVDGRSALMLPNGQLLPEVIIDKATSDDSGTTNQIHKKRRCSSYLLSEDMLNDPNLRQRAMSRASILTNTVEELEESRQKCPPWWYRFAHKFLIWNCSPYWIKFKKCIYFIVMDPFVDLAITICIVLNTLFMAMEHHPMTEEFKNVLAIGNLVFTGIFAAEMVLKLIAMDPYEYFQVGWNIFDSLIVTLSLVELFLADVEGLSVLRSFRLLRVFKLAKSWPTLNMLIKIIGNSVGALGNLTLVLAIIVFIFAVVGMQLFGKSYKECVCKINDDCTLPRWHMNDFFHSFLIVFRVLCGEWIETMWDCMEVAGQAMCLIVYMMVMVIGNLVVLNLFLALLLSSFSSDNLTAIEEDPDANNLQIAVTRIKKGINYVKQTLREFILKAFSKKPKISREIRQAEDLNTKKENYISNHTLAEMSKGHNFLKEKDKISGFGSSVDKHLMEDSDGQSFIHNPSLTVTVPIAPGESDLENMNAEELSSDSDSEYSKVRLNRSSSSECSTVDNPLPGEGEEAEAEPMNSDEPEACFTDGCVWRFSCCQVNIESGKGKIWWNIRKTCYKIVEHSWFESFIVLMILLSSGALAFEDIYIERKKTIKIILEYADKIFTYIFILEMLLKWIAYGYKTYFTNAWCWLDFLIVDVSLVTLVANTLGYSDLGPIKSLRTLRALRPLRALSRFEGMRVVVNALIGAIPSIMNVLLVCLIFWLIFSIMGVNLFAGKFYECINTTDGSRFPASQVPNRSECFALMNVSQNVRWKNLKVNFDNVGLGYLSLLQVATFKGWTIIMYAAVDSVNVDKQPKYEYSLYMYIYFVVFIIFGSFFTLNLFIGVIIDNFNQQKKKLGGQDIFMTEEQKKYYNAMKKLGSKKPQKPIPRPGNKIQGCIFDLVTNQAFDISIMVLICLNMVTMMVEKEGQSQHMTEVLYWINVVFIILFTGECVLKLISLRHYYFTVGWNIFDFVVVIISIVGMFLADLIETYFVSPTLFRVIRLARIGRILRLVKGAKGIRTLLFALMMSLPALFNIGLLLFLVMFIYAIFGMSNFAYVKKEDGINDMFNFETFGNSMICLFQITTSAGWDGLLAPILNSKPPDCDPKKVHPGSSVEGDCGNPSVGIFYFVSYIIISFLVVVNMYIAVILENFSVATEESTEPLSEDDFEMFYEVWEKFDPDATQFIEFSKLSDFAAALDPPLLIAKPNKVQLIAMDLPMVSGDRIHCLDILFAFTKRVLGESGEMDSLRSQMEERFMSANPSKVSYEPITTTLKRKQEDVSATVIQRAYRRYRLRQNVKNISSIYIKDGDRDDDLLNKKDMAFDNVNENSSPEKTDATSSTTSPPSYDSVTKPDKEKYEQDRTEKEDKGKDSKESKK
Sequence of human Nav1.7 (Q07699 19-218 partner): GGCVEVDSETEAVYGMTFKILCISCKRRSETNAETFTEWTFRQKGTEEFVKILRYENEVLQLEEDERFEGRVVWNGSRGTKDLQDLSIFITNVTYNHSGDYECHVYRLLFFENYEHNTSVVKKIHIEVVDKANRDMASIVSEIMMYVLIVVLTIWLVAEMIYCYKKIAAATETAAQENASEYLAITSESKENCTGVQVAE

`O=C(N[C@H]1COc2ccc(C(F)(F)F)cc2C1)c1nn2c(c1-c1ccn[nH]1)OCCCC2` [Example 258, (R)-3-(1H-pyrazol-5-yl)-N-(6-(trifluoromethyl)chroman-3-yl)-5,6,7,8-tetrahydropyrazolo[5,1-b][1,3]oxazepine-2-carboxamide]: the IC50 on human Nav1.7 and on human Nav1.5 was under 1000 nM each time.
Consider `O=C(N[C@H]1COc2ccc(Cl)cc2C1)c1cc2n(n1)CCN(CCC(F)(F)F)C2` [Example 261], for which the IC50 against human Nav1.7 and against human Nav1.5 was under 1000 nM in each case.
`O=C(N[C@H]1COc2cccc(Cl)c2C1)c1cc2n(n1)CCN(CCC(F)(F)F)C2` [Example 262]: the IC50 against human Nav1.7 is under 10000 nM; at human Nav1.5, at least 3000 nM.
In the same order, the values of `O=C(N[C@H]1COc2ccc(Cl)cc2C1)c1cc2n(n1)CCN(CCC1CC1)C2` [Example 263] are under 1000 nM and 1000 to 3000 nM.
The corresponding values for `O=C(N[C@H]1COc2ccc(C(F)(F)F)cc2C1)c1cc2n(n1)CCN(CCOC1CCC1)C2` [Example 265] are under 1000 nM and at least 3000 nM.
The corresponding values for `O=C(N[C@H]1COc2ccc(COCC(F)(F)F)cc2C1)c1cc2n(n1)CCN(CCOC1CCC1)C2` [Example 266] are under 1000 nM and at least 3000 nM.
On to `O=C(N[C@H]1COc2ccc(C(F)(F)F)cc2C1)c1nn2c(c1-c1ccccn1)CN(CC(F)(F)F)CC2` [Example 267], for which the IC50 at human Nav1.7 was under 10000 nM; at human Nav1.5 it was under 1000 nM.
The corresponding values for `N#Cc1ccc2c(c1)C[C@@H](NC(=O)c1cc3n(n1)CCN(Cc1ccc(F)cc1)C3)CO2` [Example 268, (R)—N-(6-cyanochroman-3-yl)-5-(4-fluorobenzyl)-4,5,6,7-tetrahydropyrazolo[1,5-a]pyrazine-2-carboxamide] are under 1000 nM and at least 3000 nM.
Consider `CC(C)(C)OCCN1CCn2nc(C(=O)N[C@H]3COc4ccc(C(F)F)cc4C3)cc2C1` [Example 272], for which the IC50 is under 10000 nM on human Nav1.7 and at least 3000 nM at human Nav1.5.
In the same order, the values of `COc1cccc(CN2CCn3nc(C(=O)N[C@H]4COc5ccc(Cl)cc5C4)cc3C2)n1` [Example 273] are under 1000 nM and at least 3000 nM.
For `O=C(N[C@H]1COc2ccccc2C1)c1nn2c(c1-c1ccccc1)CN(CC(F)(F)F)CC2` [Example 275], the IC50 against human Nav1.7 was under 1000 nM; against human Nav1.5, 1000 to 3000 nM.
The corresponding values for `O=C(N[C@H]1COc2ccccc2C1)c1cc2n(n1)CCN(C(=O)Cc1ccccc1)C2` [Example 276] are under 10000 nM and at least 3000 nM.
With `O=C(N[C@H]1COc2ccccc2C1)c1cc2n(n1)CCN(S(=O)(=O)c1cccc(C(F)(F)F)c1)C2` [Example 277], the IC50 against human Nav1.7 was under 10000 nM; at human Nav1.5 it was at least 3000 nM.
In the same order, the values of `N#Cc1ccc2c(c1)C[C@@H](NC(=O)c1cc3n(n1)CCN(c1ccc(F)cc1)C3)CO2` [Example 278] are under 1000 nM and 1000 to 3000 nM.
The corresponding values for `O=C(N[C@H]1COc2ccc(-c3cccnc3)cc2C1)c1cc2n(n1)CCN(c1ccc(F)cc1)C2` [Example 279] are under 1000 nM and at least 3000 nM.
`N#Cc1ccc(N2CCn3nc(C(=O)N[C@H]4COc5ccc(Cl)cc5C4)cc3C2)nc1` [Example 280]: the values for the IC50 against human Nav1.7 and at human Nav1.5 were under 10000 nM and under 1000 nM, respectively.
Take `CC(C)(C)N1CCn2nc(C(=O)N[C@H]3COc4ccc(Cl)cc4C3)cc2C1` [Example 281]: the concentration for half-maximal inhibition (IC50) at human Nav1.7 is under 10000 nM; against human Nav1.5 it was at least 3000 nM.
The corresponding values for `N#Cc1ccc2c(c1)C[C@@H](NC(=O)c1cc3n(n1)CCN(C1(c4ccc(F)cc4)CC1)C3)CO2` [Example 282] are under 1000 nM and 1000 to 3000 nM.
For the molecule `O=C(N[C@H]1COc2ccc(Cl)cc2C1)c1cc2n(n1)CCN(C1(C(F)(F)F)CC1)C2` [Example 283], the IC50 against human Nav1.7 and against human Nav1.5 was under 1000 nM throughout.
In the case of `CC(C)(c1ccccn1)N1CCn2nc(C(=O)N[C@H]3COc4ccc(Cl)cc4C3)cc2C1` [Example 285], the IC50 against human Nav1.7 was under 1000 nM; against human Nav1.5, 1000 to 3000 nM.

One may read the IC50 as the concentration needed to halve the response being measured. A lower IC50 goes with higher potency.
